In US12448425B2, “Therapeutic peptides” (Board of Regents, The University of Texas System, priority 2019, dated 2025):
Each block holds one molecule with its values, some of them ahead of it. Square brackets hold non-standard residues; d marks the D form. Ends that are not written are not given here. Peptide text beside a SMILES is read from it.

Experiments:
[1] = molecular target: T1, EphB4 (Homo sapiens, UniProt P54760); test: SPR binding of peptides to immobilized EphB4; conditions: EphB4-coated sensor chips, 25° C.
T1 construct: purchased R&D Systems
T1 sequence (P54760 16-987): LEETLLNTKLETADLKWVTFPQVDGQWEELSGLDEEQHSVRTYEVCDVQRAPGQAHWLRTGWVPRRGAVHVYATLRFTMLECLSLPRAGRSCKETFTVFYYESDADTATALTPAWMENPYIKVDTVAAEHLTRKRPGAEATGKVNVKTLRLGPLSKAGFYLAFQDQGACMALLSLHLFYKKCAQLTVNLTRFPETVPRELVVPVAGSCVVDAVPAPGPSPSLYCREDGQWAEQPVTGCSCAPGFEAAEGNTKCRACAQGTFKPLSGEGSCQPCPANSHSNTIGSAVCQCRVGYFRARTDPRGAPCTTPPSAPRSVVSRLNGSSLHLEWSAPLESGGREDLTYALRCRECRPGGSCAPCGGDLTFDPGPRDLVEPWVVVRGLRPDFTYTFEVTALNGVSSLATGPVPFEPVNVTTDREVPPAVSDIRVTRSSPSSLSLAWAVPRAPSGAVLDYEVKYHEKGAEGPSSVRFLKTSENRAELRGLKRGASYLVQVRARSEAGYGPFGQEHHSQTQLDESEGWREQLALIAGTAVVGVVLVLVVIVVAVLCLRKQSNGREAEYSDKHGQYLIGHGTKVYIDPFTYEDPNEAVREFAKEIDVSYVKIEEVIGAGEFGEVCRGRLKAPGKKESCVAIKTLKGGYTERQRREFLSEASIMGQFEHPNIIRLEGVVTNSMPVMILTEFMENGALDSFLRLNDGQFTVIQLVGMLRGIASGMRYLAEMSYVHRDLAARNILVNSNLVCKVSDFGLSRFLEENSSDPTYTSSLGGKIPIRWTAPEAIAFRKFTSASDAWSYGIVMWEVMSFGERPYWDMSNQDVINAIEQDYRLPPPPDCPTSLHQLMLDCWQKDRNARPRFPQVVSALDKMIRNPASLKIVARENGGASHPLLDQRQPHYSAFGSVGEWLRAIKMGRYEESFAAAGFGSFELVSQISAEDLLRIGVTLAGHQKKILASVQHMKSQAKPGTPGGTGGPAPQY
Experimental: Surface plasmon resonance (SPR) binding and competition assays. A stock solution of EphB4 in PBS (100 μg/mL) was diluted to 25 μg/mL with 10 mM sodium acetate buffer (pH 4.5) and immobilized to CM5 sensor chips using the amine coupling reaction according to manufacturer-provided procedures (BIACore). Briefly, the surfaces of the chips in flow cells (FC)-1 and FC-2 were activated by exposing chips to a mixture of 200 mM N-ethyl-N′-dimethylaminopropyl carbodiimide and 50 mM N-hydroxysuccinimide for 7 min. FC-1 was used as a reference surface and was directly deactivated by injecting 1 M ethanolamine at pH 8.5 for 7 min. FC-2 was injected with 25 μg/mL human or murine EphB4 followed by injection of 1 M ethanolamine to block the remaining activated ester groups on the surface. The chips were allowed to stabilize for at least 2 h in HBSEP running buffer before injection of test analytes.

[2] = Zhang et al., 2011b; cited from earlier work
[3] = tested on: A2780cp20 cells; test: Internalization of Alexa647-labeled peptides (confocal microscopy); assay type: cell-based, human
Experimental: FIGS. 2A-C: BIDEN-AP acts as an EphB4 agonist. (FIG. 2A) BIDEN-AP induced phosphorylation of EphB4 and the associated […] (Crk1). After 16 h serum starvation, A2780cp20 cells were incubated with EFNB2-Fc (20 nM), TNYL-RAW (SEQ ID NO: 12) (50 μM), or BIDEN-AP (50 μM) for 30 min or 2 h. The uncropped blots were available at Supplemental FIG. 11. (FIG. 2B) BIDEN-AP inhibited A2780cp20 cell invasion compared to untreated control (CTL). A modified Boyden transwell chamber coated with human defined matrigel was used. Experiments were performed in triplicate. Data are presented as mean±SD. ***p<0.001. (FIG. 2C) Alexa647-BIDEN-AP was internalized via receptor-mediated endocytosis. A2780cp20 cells were incubated at 37° C. with Alexa647-BIDEN-AP (0.05 μM), Alexa647-TNYL-RAW (SEQ ID NO: 12) (0.05 μM), or Alexa647-BIDEN-AP (0.05 μM) plus unlabeled TNYL-RAW (SEQ ID NO: 12) (5 μM, blocking). Alexa647-BIDEN-AP but not Alexa647-TNYL-RAW (SEQ ID NO: 12) was internalized into the A2780cp20 cells.
A2780cp20 cells were incubated at 4° C. with Alexa647-BIDEN-AP (0.05 μM).
Immunofluorescence imaging. A2780cp20 ovarian cancer cells (5×10^5 cells/well) were plated in 4-well chamber slides and treated with Alexa647-labeled BIDEN-AP (50 μM) for 1 h or 2 h. Cells were washed three times with 1×PBS and fixed in freshly prepared fixative containing 3.7% formaldehyde, 0.05% glutaraldehyde, and 0.4% Triton-X-100 in PHEMO buffer (0.068 M PIPES, 0.025 M HEPES, 0.015 M EGTA, 0.003 M MgCl2, and 10% ov/v dimethylsufoxide [DMSO]) for 10 min at room temperature. LysoTracker Green (Cat. L7526; Invitrogen, Carlsbad, CA) was used as a marker of lysosome. The nucleus was stained with Hoechst 33342 (300 nM) at room temperature for 10 min before mounting in Gel Mount mounting medium (Vector Laboratories, Burlingame, CA). Fixed and immunofluorescence-stained cells were imaged using a Zeiss LSM510 Meta laser scanning confocal system (Zeiss, Dublin, CA) configured to a Zeiss Axioplan 2 upright microscope with a CFI Plan Apo Lambda 20× objective lens. Images were obtained from three independent biological replicates.

[4] = tested on: EphB4 on the surface of A2780cp20 cells; assay type: cell-based, human; conditions: 1 h
Experimental: Cell-based binding assay. A2780cp20 ovarian cancer cells (1×10^6 cells/mL) were incubated with EFNB2-Fc (20 nM) and BIDEN-AP at concentrations ranging from 0 to 100 μM at 25° C. for 1 h. After washings, EFNB2-Fc bound to the cells were probed with PE-labeled anti-Fc antibody and analyzed by flow cytometry. Binding of BIDEN-AP to A2780cp20 cells was determined by its ability to displace EFNB2-Fc's binding to the tumor cells, measured by decreased PE fluorescence signal. Cells were analyzed in a Cellquest fluorocytometer (BD Bioscience, San Jose, CA). The experiments were run in duplicate.

[5] = tested on: MDA-HGSC-1 PDX tumor; conditions: mouse, in vivo
Excerpt: PDX model of high grade serous ovarian carcinoma (HGSC). Under Institutional Review Board (IRB protocol PA15-0441) and IACUC approval at University of Texas, MD Anderson Cancer Center, patients with high-serous ovarian carcinoma that were being treated by at the MD Anderson Cancer Center were consented for this study. Subcutaneous HGSC-PDX model was established in 4-6 week old female Balb C athymic nude mice (Harlan Laboratories, Indianapolis, Ind.) by implanting one PDX 3×3×3 mm tumor cube (MDA-HGSOC-1 high-grade serous ovarian cancer; generation 9) at the dorsal portion of each mouse. Tumor size was monitored by caliber, and tumor volume was calculated using the formula V(cm^3)=(length×width^2)/2. Mice were randomly assigned to the PBS vehicle control or BIDEN-AP treatment group, 6 mice per group, once tumor size reached ˜100 mm^3 (21 days after implantation). PBS or BIDEN-AP was injected intraperitoneally at […] ([…]), once every other day for a total of 14 doses. At the end of the study (day 49), all mice were euthanized, and tumors were collected, weighted, and snap-frozen in optimal cutting temperature compound with liquid nitrogen, and cryosectioned into 5-μm sections for IHC staining of CD31 and Ki67 markers. […] Cell nuclei were counterstained with DAPI.

[6] = tested on: 4T1 cells; test: 4T1 i.v. lung metastasis model; parameters: species or system mouse; conditions: throughout these in vivo studies
Excerpt: FIGS. 25A-B: Anti-metastatic activity of BIDEN-AP. (FIG. 25A) Representative photographs of lungs from different treatment groups. The normal lung tissue was stained by blue ink. (FIG. 25B) Counts of surface metastatic nodules in the lung by visual inspection. Data are expressed as mean±SD. **p<0.01 (n=10).
BIDEN-AP was given at the same dose and the same schedule as in FIG. 24A. […] Thus, BIDEN-AP is highly anti-metastatic.

Kd [1]: 21 nM
Molecule: YSA-TNYL-RAW-dimer [B4-003]

Molecule: TNYLFSPNGPIARAW-NH2 (C-terminus assumed) [TNYL-RAW]
area-under-the time curve [AUC] [2]: 29.1 % ID h/mL

Molecule: Alexa647-TNYL-RAW: TNYL-RAW coupled with Alexa647-NHS (TNYLRAW; also: Alexa647 label, site not given here) [reference compound]
cellular internalization at 37° C. [3]: excluded

Kd [1]: > 1000 nM
Molecule: CC[C@H](C)[C@H](NC(=O)[C@@H]1CCCN1C(=O)CNC(=O)[C@H](CC(N)=O)NC(=O)[C@@H]1CCCN1C(=O)[C@@H](CO)NC(=O)[C@H](Cc1ccccc1)NC(=O)[C@H](CC(C)C)NC(=O)[C@H](Cc1ccc(O)cc1)NC(=O)[C@H](CC(N)=O)NC(=O)[C@@H](N)[C@@H](C)O)C(=O)N[C@@H](C)C(=O)N[C@@H](CCCNC(=N)N)C(=O)N[C@@H](C)C(=O)N[C@@H](Cc1c[nH]c2ccccc12)C(N)=O [B4-006] (H-TNYLF[dS]PNGPIARAW-NH2)

Molecule: CC[C@H](C)[C@H](NC(=O)[C@@H]1CCCN1C(=O)CNC(=O)[C@H](CC(N)=O)NC(=O)[C@@H]1CCCN1C(=O)[C@H](CO)NC(=O)[C@H](Cc1ccccc1)NC(=O)[C@H](CC(C)C)NC(=O)[C@@H](Cc1ccc(O)cc1)NC(=O)[C@H](CC(N)=O)NC(=O)[C@@H](N)[C@@H](C)O)C(=O)N[C@@H](C)C(=O)N[C@@H](CCCNC(=N)N)C(=O)N[C@@H](C)C(=O)N[C@@H](Cc1c[nH]c2ccccc12)C(N)=O [BIDEN-AP] (H-TN[dY]LFSPNGPIARAW-NH2; C-terminus assumed)
IC50 [4]: ~1000 nM
body weight change vs control group [5]: did not result in body weight change
tolerability (treatment-related death, body weight) [6]: no cases of treatment-related death or change in body weight

Molecule: Alexa647-BIDEN-AP: BIDEN-AP coupled with Alexa647-NHS (TN[dY]LFSPNGPIARAW; also: Alexa647 label, site not given here)
cellular internalization at 37° C. [3]: readily internalized
internalization in presence of excess unlabeled TNYL-RAW ([3]; 37° C., blocking): blocked
